Reference: patent US20230322769A1, “HETEROAROMATIC RING COMPOUND AS RET KINASE INHIBITOR, AND PREPARATION AND USE THEREOF” (JIANGSU CHIA TAI FENGHAI PHARMACEUTICAL CO., LTD., priority 2020, published 2023)
Read-outs that look alike come from different tables or passages of the source.

Legend:
RET (M918T) = RET (M918T) (Homo sapiens (Human), UniProt P07949, M918T); assay: HTRF kinase activity assay, RET (M918T); assay type: biochemical; conditions: 10 μM ATP
RET wild type (RET WT) = RET wild type (RET WT) (Homo sapiens (Human), UniProt P07949); assay: HTRF kinase activity assay, RET wild type; assay type: biochemical; conditions: 1 μM ATP
KDR (VEGFR2) = KDR (VEGFR2) (Homo sapiens (Human), UniProt P35968); assay: HTRF kinase activity assay, KDR; assay type: biochemical; conditions: 20 μM ATP
RET (V804M) = RET (V804M) (Homo sapiens (Human), UniProt P07949, V804M); assay: HTRF kinase activity assay, RET (V804M); assay type: biochemical; conditions: 10 μM ATP
[1] = tested on: Ba/F3 KIF5B-RET-V804M cells; assay: Ba/F3 KIF5B-RET-V804M cell inhibition (CellTiter-Glo); assay type: cell-based; conditions: Mus musculus, BaF3, 72 h
Experimental: (§1) Activity Experiment 3: Inhibition of Ba/F3 KIF5B-RET Cells by Prepared Compounds Ba/F3 KIF5B-RET, Ba/F3KIF5B-RET-V804M, Ba/F3 RET-M918T and Ba/F3 KIF5B-RET-G810R cells growing in log phase were harvested and counted using a […]. The cell viability was determined by the trypan blue exclusion method, and the cell viability was kept over 90%. The cell concentration was adjusted, and 90 μL of the cell suspension was added to a 96-well plate. The cells in the 96-well plate were incubated overnight at 37° C. with 5% CO2 and 95% humidity. Corresponding gradient concentrations of drug solutions (the maximum concentration was 1000 nM) were added to the 96-well plate inoculated with cells at 10 μL/well. Triplicate wells were set per drug concentration, and the final concentration of DMSO was 0.1%. The drug-treated cells in the 96-well plate were incubated for another 72 h at 37° C. with 5% CO2 and 95% humidity. After the drug treatment was completed, 100 μL of CellTiter-Glo reagent was added to each well. The cell plate was shaken on an orbital shaker for 5 min to lyse the cells and then let stand at room temperature for 20 min to stabilize the luminescence signals, and then the luminescence values were read. The data were analyzed using the GraphPad Prism 5.0 software. Dose-response curves were fit to the data using nonlinear S-curve regression, and IC50 was calculated from the curves.

hERG potassium channel [2] = target: T1, hERG potassium channel (Homo sapiens (Human), UniProt Q12809); assay: Inhibition of hERG potassium channel, whole-cell patch clamp in HEK293 cells
CCDC6-RET [3] = target: CCDC6-RET (Homo sapiens (Human), UniProt P07949); assay: HTRF kinase activity assay, CCDC6-RET; assay type: biochemical; conditions: 1 μM ATP
[4] = tested on: Ba/F3 KIF5B-RET-G810R cells; assay: Ba/F3 KIF5B-RET-G810R cell inhibition (CellTiter-Glo); assay type: cell-based; conditions: Mus musculus, BaF3, 72 h, maximum concentration 1000 nM
Experimental: as §1

Ba/F3 KIF5B-RET cells = assay: Ba/F3 KIF5B-RET cell inhibition (CellTiter-Glo); assay type: cell-based; conditions: Mus musculus, BaF3, 72 h
Experimental: as §1

Ba/F3 RET-M918T cells = assay: Ba/F3 RET-M918T cell inhibition (CellTiter-Glo); assay type: cell-based; conditions: Mus musculus, BaF3, 72 h
Experimental: as §1

[5] = Metabolic stability in human liver microsomes
in vitro = conditions: human, microsomes; for microsomal CLint at 1 µM: CLint (μL/min/mg); for half-life at 1 µM: T1/2 (min)
hERG potassium channel [6] = target: T1, hERG potassium channel
CCDC6-RET [7] = target: CCDC6-RET (Homo sapiens (Human), UniProt P07949+Q16204); assay: HTRF kinase activity assay, CCDC6-RET; assay type: biochemical; conditions: 1 μM ATP
[8] = CLint (μL/min/mg), human liver microsomes, NADPH, Table 3
[9] = T1/2 (min), human liver microsomes, NADPH, Table 3
[10] = read-out: IC50 for inhibition of hERG potassium channel, HEK293 cells stably expressing hERG, patch clamp

Chain of CCDC6-RET (Homo sapiens (Human), UniProt P07949) (P07949 other isoform, or with tags, fused parts or gaps): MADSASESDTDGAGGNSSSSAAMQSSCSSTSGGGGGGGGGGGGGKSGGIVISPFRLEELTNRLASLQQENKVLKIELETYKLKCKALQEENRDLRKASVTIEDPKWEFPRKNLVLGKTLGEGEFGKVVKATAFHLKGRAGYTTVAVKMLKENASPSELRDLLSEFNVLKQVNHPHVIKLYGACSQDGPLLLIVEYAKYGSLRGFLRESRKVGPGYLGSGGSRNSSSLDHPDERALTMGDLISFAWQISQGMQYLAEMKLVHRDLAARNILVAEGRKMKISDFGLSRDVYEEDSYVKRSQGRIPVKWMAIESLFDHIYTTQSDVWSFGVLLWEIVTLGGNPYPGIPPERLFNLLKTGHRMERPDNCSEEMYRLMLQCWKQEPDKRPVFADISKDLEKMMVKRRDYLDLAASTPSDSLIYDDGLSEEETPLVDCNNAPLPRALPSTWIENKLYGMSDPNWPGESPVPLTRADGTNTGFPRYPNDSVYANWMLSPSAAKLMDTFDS
Chain of CCDC6-RET (Homo sapiens (Human), UniProt P07949+Q16204) (P07949 other isoform, or with tags, fused parts or gaps): as above
Chain of KDR (VEGFR2) (P35968 20-1356): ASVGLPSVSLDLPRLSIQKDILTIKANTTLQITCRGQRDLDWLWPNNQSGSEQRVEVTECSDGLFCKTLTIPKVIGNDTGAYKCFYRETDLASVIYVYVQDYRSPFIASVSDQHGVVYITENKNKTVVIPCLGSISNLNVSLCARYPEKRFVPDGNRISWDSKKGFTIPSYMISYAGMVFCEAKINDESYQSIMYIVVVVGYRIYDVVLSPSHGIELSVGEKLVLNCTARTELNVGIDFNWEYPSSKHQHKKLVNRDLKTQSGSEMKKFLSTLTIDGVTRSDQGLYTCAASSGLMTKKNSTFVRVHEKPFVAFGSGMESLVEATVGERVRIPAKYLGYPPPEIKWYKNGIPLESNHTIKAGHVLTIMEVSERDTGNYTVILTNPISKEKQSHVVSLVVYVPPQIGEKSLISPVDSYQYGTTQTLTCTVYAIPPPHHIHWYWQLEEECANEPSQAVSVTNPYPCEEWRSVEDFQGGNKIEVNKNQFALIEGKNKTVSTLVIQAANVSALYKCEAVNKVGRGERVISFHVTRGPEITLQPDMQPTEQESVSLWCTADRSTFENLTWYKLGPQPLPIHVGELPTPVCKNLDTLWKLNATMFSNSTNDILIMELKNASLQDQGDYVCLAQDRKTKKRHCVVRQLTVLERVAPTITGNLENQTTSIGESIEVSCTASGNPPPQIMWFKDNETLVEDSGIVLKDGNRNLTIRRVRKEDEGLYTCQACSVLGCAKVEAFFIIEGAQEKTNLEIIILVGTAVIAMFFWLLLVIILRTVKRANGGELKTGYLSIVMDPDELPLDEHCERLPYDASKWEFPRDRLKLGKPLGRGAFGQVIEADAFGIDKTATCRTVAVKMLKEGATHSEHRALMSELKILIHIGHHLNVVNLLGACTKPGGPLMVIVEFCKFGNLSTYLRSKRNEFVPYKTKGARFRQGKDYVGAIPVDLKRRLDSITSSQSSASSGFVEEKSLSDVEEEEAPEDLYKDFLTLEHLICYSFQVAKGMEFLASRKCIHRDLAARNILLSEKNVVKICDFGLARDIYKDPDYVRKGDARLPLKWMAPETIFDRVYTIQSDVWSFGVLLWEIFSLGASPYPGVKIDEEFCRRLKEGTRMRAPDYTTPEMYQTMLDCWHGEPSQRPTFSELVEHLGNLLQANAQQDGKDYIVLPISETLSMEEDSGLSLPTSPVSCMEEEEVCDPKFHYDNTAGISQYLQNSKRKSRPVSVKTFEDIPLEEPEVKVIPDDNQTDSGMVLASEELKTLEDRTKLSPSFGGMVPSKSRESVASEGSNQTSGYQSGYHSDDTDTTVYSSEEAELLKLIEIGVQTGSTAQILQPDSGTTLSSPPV
Chain of RET (V804M) (P07949 29-1114 V804M): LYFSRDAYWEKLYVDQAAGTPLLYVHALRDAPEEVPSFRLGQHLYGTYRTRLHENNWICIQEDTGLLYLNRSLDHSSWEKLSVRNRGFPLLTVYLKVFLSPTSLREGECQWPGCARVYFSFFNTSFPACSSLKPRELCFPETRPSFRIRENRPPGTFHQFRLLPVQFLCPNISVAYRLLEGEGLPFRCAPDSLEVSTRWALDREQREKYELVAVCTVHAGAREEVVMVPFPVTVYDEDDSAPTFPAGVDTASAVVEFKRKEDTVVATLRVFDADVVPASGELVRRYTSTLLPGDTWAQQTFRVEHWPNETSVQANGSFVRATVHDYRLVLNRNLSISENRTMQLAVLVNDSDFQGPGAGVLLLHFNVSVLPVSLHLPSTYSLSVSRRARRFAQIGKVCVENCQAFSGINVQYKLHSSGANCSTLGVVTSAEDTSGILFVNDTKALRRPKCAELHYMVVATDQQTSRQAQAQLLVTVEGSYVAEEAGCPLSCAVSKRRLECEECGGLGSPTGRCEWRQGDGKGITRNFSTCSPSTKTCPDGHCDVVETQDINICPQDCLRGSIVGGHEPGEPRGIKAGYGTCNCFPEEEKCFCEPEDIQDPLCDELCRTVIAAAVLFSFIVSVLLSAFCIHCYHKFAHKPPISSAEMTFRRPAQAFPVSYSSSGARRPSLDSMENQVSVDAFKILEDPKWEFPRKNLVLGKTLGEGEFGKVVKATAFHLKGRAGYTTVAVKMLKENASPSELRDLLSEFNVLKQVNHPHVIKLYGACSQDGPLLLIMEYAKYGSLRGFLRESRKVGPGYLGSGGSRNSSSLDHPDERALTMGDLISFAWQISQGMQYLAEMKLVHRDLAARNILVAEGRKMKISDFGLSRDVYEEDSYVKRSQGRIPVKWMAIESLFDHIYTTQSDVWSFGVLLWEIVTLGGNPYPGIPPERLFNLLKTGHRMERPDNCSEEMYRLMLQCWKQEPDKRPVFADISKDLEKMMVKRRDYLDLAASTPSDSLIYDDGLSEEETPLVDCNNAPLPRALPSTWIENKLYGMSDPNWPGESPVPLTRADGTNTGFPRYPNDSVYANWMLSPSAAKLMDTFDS
Chain of RET (M918T) (P07949 29-1114 M918T): as the sequence (P07949 29-1114 V804M) above, with M776V, M890T counted along it
Chain of RET wild type (RET WT) (P07949 29-1114): as the sequence (P07949 29-1114 V804M) above, with M776V counted along it
T1 sequence (Q12809 whole entry): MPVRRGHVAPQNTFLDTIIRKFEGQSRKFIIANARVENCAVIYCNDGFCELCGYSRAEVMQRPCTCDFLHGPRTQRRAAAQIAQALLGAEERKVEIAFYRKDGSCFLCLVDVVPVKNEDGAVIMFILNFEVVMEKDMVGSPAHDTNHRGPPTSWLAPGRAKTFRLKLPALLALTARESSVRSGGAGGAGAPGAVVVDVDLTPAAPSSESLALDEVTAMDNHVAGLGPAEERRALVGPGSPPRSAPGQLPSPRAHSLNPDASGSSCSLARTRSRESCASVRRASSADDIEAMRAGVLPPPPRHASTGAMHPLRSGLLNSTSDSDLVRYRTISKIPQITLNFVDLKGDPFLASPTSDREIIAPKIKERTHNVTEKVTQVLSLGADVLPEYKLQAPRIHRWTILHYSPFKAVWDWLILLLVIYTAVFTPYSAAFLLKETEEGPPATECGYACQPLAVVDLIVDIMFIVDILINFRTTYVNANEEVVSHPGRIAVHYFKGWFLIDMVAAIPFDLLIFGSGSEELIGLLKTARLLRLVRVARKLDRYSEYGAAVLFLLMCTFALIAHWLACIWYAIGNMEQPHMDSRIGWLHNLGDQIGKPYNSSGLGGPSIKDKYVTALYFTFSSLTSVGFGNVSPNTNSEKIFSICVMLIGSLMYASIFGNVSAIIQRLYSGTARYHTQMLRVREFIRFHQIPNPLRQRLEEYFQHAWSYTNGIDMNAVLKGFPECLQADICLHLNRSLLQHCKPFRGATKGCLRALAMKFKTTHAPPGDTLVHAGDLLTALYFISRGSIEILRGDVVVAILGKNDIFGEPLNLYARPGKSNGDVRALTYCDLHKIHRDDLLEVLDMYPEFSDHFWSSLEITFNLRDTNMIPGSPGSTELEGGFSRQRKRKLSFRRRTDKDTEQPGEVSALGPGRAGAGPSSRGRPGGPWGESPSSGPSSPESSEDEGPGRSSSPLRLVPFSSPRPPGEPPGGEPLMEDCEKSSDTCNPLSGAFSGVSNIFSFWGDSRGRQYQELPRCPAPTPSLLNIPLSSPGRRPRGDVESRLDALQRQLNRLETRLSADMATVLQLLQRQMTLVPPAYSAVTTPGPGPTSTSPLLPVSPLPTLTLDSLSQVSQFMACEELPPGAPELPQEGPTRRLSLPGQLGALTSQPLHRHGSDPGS

Row | Structure (SMILES) | IC50 (RET (M918T)) | IC50 (RET wild type (RET WT)) | IC50 (KDR (VEGFR2)) | IC50 (RET (V804M)) | IC50 (Ba/F3 KIF5B-RET cells) | also measured
1 | COc1ccc(CN2CCN(c3ccc(-c4cc(-c5cc6n(n5)CCC6)cn5ncc(C#N)c45)cn3)CC2)cn1 [Compound 58] | 0.00952 µM | 0.00498 µM | 0.134 µM | 0.0193 µM | – | –
2 | COc1ccc(CN2C3CC2CN(c2ccc(-c4cc(N5CCC(C)(O)C5)cn5ncc(C#N)c45)cn2)C3)cn1 (stereo not shown) [Compound 70] | 0.00162 µM | 0.00117 µM | 0.0239 µM | 0.00101 µM | 0.00099 µM | IC50 [1]: 0.0119 µM; IC50 (hERG potassium channel [2]): 4.74 µM; IC50 (CCDC6-RET [3]): 0.00102 µM; IC50 [4]: 0.194 µM; IC50 (Ba/F3 RET-M918T cells): 0.00115 µM; microsomal CLint at 1 µM [5, 8]: 50.6 µL/min/mg; half-life at 1 µM [5, 9]: 27.4 min
3 | COc1ccc(CN2C3CC2CN(c2ccc(-c4cc(N5CCNCC5)cn5ncc(C#N)c45)cn2)C3)cn1 [Compound 96] | – | – | – | – | 0.0418 µM | IC50 [1]: 0.196 µM; IC50 (Ba/F3 RET-M918T cells): 0.0451 µM
4 | COc1ccc(CN2C3CC2CN(c2ccc(-c4cc(N5CC6CC(C5)N6C)cn5ncc(C#N)c45)cn2)C3)cn1 [Compound 17] | – | – | – | – | – | microsomal CLint at 1 µM (in vitro): 36.4 µL/min/mg; half-life at 1 µM (in vitro): 38.1 min; IC50 (hERG potassium channel [6]): 1.31 µM
5 | COc1ccc(CN2C3CC2CN(c2ccc(-c4cc(N5CCN(C)CC5)cn5ncc(C#N)c45)cn2)C3)cn1 [Compound 87] | – | – | – | – | 0.0118 µM | IC50 [1]: 0.116 µM; IC50 (hERG potassium channel [2]; [10]): 2.13 µM; IC50 [4]: 0.431 µM; IC50 (Ba/F3 RET-M918T cells): 0.0135 µM; microsomal CLint at 1 µM [5, 8]: 35.8 µL/min/mg; half-life at 1 µM [5, 9]: 38.7 min
6 | COc1ccc(CN2CCC(Nc3ccc(-c4cc(-c5cnn(C)c5)cn5ncc(C#N)c45)cn3)CC2)cn1 [Compound 21] | 0.08 µM | 0.045 µM | 0.109 µM | 0.188 µM | – | IC50 (CCDC6-RET [7]): 0.0605 µM
7 | COc1ccc(CN2C3CC2CN(c2ccc(-c4cc(-c5cnn6c5CCC6)cn5ncc(C#N)c45)cn2)C3)cn1 [Compound 51] | 0.0039 µM | 0.00461 µM | 0.052 µM | 0.00716 µM | – | IC50 (CCDC6-RET [7]): 0.00215 µM
8 | COc1ccc(CN2C3CC2CN(c2ccc(-c4cc(N5CCOCC5=O)cn5ncc(C#N)c45)cn2)C3)cn1 [Compound 69] | 0.0223 µM | 0.0186 µM | 0.755 µM | 0.0385 µM | – | IC50 (CCDC6-RET [3]): 0.012 µM
9 | [2H]C([2H])([2H])N1CCN(c2cc(-c3ccc(N4CC5CC(C4)[N+]5([O-])Cc4ccc(OC)nc4)nc3)c3c(C#N)cnn3c2)CC1 (stereo not shown) [Compound 99] | – | 0.0566 µM | – | – | – | –
10 | COc1ccc(CN2C3CC2CN(c2ccc(-c4cc(N5CCC(OC)C5)cn5ncc(C#N)c45)cn2)C3)cn1 (stereo not shown) [Compound 68] | 0.00847 µM | 0.0013 µM | 0.0166 µM | 0.00537 µM | 0.002 µM | IC50 (CCDC6-RET [3]): 0.00254 µM
11 | COc1ccc(CN2C3CC2CN(c2ccc(-c4cc(N5CCC(O)C5)cn5ncc(C#N)c45)cn2)C3)cn1 (stereo not shown) [Compound 67] | 0.00075 µM | 0.00079 µM | 0.0246 µM | 0.00109 µM | 0.00358 µM | –
12 | COc1ccc(CN2C3CC2CN(c2ccc(-c4cc(N5CCOCC5)cn5ncc(C#N)c45)cn2)C3)cn1 [Compound 65] | – | – | – | – | 0.00806 µM | IC50 [1]: 0.0586 µM; IC50 (hERG potassium channel [2]; [10]): 2.72 µM; IC50 (Ba/F3 RET-M918T cells): 0.0239 µM; microsomal CLint at 1 µM [5, 8]: 44.8 µL/min/mg; half-life at 1 µM [5, 9]: 30.9 min
13 | COc1ccc(CN2CCCN(c3ccc(-c4cc(-c5cnn(C)c5)cn5ncc(C#N)c45)cn3)CC2)cn1 [Compound 32] | 0.00173 µM | 0.00211 µM | 0.0391 µM | 0.0048 µM | – | IC50 (CCDC6-RET [7]): 0.00313 µM
14 | COc1ccc(CN2C3CC2CN(c2ccc(-c4cc(N5CCN(C)C(=O)C5)cn5ncc(C#N)c45)cn2)C3)cn1 [Compound 89] | – | – | – | – | 0.024 µM | IC50 [1]: 0.0953 µM; IC50 (hERG potassium channel [2]; [10]): 7.17 µM; IC50 [4]: 0.959 µM; IC50 (Ba/F3 RET-M918T cells): 0.0116 µM
15 | COc1ccc(CN(C)C2CCCCC2N(C)c2ccc(-c3cc(-c4cnn(C)c4)cn4ncc(C#N)c34)cn2)cn1 (stereo not shown) [Compound 34] | 0.0978 µM | 0.0358 µM | 0.311 µM | 0.21 µM | – | IC50 (CCDC6-RET [7]): 0.0716 µM
16 | CO[C@]1(C(=O)N[C@@H](C)c2ccc(-n3cc(F)cn3)nc2)CC[C@H](c2nc(C)cc(Nc3cc(C)[nH]n3)n2)CC1 [BLU-667, reference compound] | – | – | – | – | 0.0114 µM | IC50 [1]: 0.0111 µM; IC50 [4]: 0.481 µM; IC50 (Ba/F3 RET-M918T cells): 0.0129 µM
17 | COc1ccc(CN2C3CC2CN(c2ccc(-c4cc(C#CC(C)(C)O)cn5ncc(C#N)c45)cn2)C3)cn1 [Compound 66] | 0.00205 µM | 0.00166 µM | 0.123 µM | 0.00769 µM | 0.00917 µM | IC50 (CCDC6-RET [3]): 0.00113 µM
18 | [2H]C([2H])([2H])[N+]1([O-])CCN(c2cc(-c3ccc(N4CC5CC(C4)N5Cc4ccc(OC)nc4)nc3)c3c(C#N)cnn3c2)CC1 [Compound 101] | – | 0.0025 µM | 0.215 µM | – | – | –
19 | COc1ccc(CN2C3CC2CN(c2ccc(-c4cc(NCC(C)(C)O)cn5ncc(C#N)c45)cn2)C3)cn1 [Compound 78] | – | – | – | – | 0.0136 µM | –
20 | COc1ccc(CN2C3CC2CN(c2ccc(-c4cc(N5CC6CC(C5)N6)cn5ncc(C#N)c45)cn2)C3)cn1 [Compound 16] | – | – | – | – | – | microsomal CLint at 1 µM (in vitro): 8.8 µL/min/mg; half-life at 1 µM (in vitro): 158 min; IC50 (hERG potassium channel [6]): 2.06 µM
21 | COc1ccc(CN2C3CC2CN(c2ccc(-c4cc(N5CCP(C)(=O)CC5)cn5ncc(C#N)c45)cn2)C3)cn1 [Compound 20] | – | – | – | – | – | IC50 (hERG potassium channel [2]; [10]): 22.2 µM; half-life at 1 µM [5]: 231 min; microsomal CLint at 1 µM [5]: 6 µL/min/mg
22 | COc1ccc(CN2C3CC2CN(c2ccc(-c4cc(-c5cc6n(n5)CCC6)cn5ncc(C#N)c45)cn2)C3)cn1 [Compound 57] | – | – | – | – | – | microsomal CLint at 1 µM (in vitro): 69.8 µL/min/mg; half-life at 1 µM [5, 9]: 19.9 min
23 | COc1ccc(CN2C3CC2CN(c2ccc(-c4cc(N5CCCC(O)C5)cn5ncc(C#N)c45)cn2)C3)cn1 (stereo not shown) [Compound 82] | – | – | – | – | 0.0171 µM | –
24 | COc1ccc(CN2C3CC2CN(c2ccc(-c4cc(N5CC(C)(O)C5)cn5ncc(C#N)c45)cn2)C3)cn1 [Compound 86] | – | – | – | – | 0.00366 µM | –
